# Test results as given in patent US10144715B2, “Piperazine derivatives as liver X receptor modulators” (priority 2014, dated 2018).
# Where two headings read alike, the source gives them in different places.
# Legend:
# [1] = target: LXR β LBD protein (Homo sapiens (Human), UniProt P55055); test: biochemical; type: binding
# [2] = target: Gal4 DNA binding domain fused to the LBD of LXRβ in HEK293 cells (Homo sapiens (Human), UniProt P55055); test: cell-based; details: for Cell LXRβ efficacy: agonist mode
# [3] = target: Gal4 DNA binding domain fused to the LBD of LXRα in HEK293 cells (Homo sapiens (Human), UniProt Q13133); test: LXR luciferase transcriptional reporter gene assay, agonist mode, LXRα; type: cell-based; details: for EC50: read-out: Cell LXRα EC50
# [4] = target: LXR α LBD protein (Homo sapiens (Human), UniProt Q13133); test: LXR α radioligand binding assay (SPA, competition with [3H]TO901317); details: read-out: LXRα Binding Ki
# Chain of LXR α LBD protein (Q13133 209-447): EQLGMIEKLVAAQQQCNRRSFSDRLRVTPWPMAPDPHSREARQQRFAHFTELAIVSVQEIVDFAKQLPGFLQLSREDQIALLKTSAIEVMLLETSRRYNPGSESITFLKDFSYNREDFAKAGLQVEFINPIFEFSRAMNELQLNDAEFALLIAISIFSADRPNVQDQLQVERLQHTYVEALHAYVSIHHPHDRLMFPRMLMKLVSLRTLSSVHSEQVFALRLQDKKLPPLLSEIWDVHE
# Chain of Gal4 DNA binding domain fused to the LBD of LXRα in HEK293 cells (Q13133 209-447): as above
# Chain of LXR β LBD protein (P55055 222-460 limits assumed): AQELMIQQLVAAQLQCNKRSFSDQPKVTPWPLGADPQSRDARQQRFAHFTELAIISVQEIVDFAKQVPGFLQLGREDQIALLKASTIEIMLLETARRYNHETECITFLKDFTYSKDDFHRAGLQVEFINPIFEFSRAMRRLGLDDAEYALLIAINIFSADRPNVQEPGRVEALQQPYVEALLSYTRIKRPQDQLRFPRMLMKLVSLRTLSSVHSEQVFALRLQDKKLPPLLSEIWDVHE
# Chain of Gal4 DNA binding domain fused to the LBD of LXRβ in HEK293 cells (P55055 222-460 limits assumed): as above
Compound,Ki ([1]; read-out: LXRβ Binding Ki),EC50 [2],Cell LXRβ efficacy [2],Cell LXRα efficacy [3],EC50 ([3]; agonist mode),Ki [4],EC50 [3],Ki [1]
"Cc1coc(-c2ccc(N3CCN(c4ncc(CO)c(C(F)(F)F)n4)[C@H](C(C)C)C3)cc2S(C)(=O)=O)n1 [11-8, (R)-(2-(2-isopropyl-4-(4-(4-methyloxazol-2-yl)-3-(methylsulfonyl)phenyl)piperazin-1-yl)-4-(trifluoromethyl)pyrimidin-5-yl)methanol]",133 nM,405 nM,405 (53) %,2934 (53) %,2930 nM,1160 nM,–,–
"Cc1nnc(-c2ccc(N3CCN(c4ncc(CO)c(C(F)(F)F)n4)[C@H](C(C)C)C3)cc2S(C)(=O)=O)o1 [11-9, (R)-(2-(2-isopropyl-4-(4-(5-methyl-1,3,4-oxadiazol-2-yl)-3-(methylsulfonyl)phenyl)piperazin-1-yl)-4-(trifluoromethyl)pyrimidin-5-yl)methanol]",247 nM,603 nM,603 (39) %,3283 (31) %,–,1970 nM,3280 nM,–
"Cc1noc(-c2ccc(N3CCN(c4ncc(CO)c(C(F)(F)F)n4)[C@H](C(C)C)C3)cc2S(C)(=O)=O)n1 [11-10, (R)-(2-(2-isopropyl-4-(4-(3-methyl-1,2,4-oxadiazol-5-yl)-3-(methylsulfonyl)phenyl)piperazin-1-yl)-4-(trifluoromethyl)pyrimidin-5-yl)methanol]",773 nM,2250 nM,2253 (36) %,6291 (28) %,6290 nM,> 3330 nM,–,–
"Cc1nc(N2CCN(c3ccc(F)c(S(C)(=O)=O)c3)C[C@H]2C(C)C)ncc1CO [11-14, (R)-(2-(4-(4-fluoro-3-(methylsulfonyl)phenyl)-2-isopropylpiperazin-1-yl)-4-methylpyrimidin-5-yl)methanol]",–,> 20000 nM,–,–,–,> 3330 nM,> 20000 nM,515 nM
"CNS(=O)(=O)c1cc(N2CCN(c3ncc(C(C)O)c(C(F)(F)F)n3)[C@H](C(C)C)C2)ccc1F (stereo partly drawn) [12-8, 2-fluoro-5-((3R)-4-(5-(1-hydroxyethyl)-4-(trifluoromethyl)pyrimidin-2-yl)-3-isopropylpiperazin-1-yl)-N-methylbenzenesulfonamide]",4 nM,59 nM,59 (46) %,503 (56) %,503 nM,126 nM,–,–
"CC(C)[C@@H]1CN(c2ccc(F)c(S(C)(=O)=O)c2)CCN1c1ncc(CN(C)CCCO)c(C(F)(F)F)n1 [15-9, (R)-3-(((2-(4-(4-fluoro-3-(methylsulfonyl)phenyl)-2-isopropylpiperazin-1-yl)-4-(trifluoromethyl)pyrimidin-5-yl)methyl)(methyl)amino)propan-1-ol]",–,> 20000 nM,–,4170 (10) %,4170 nM,2060 nM,–,146 nM
"CNC(=O)c1cnc(N2CCN(c3ccc(F)c(S(C)(=O)=O)c3)C[C@H]2C(C)C)nc1C(F)(F)F [17-3, (R)-2-(4-(4-fluoro-3-(methylsulfonyl)phenyl)-2-isopropylpiperazin-1-yl)-N-methyl-4-(trifluoromethyl)pyrimidine-5-carboxamide]",188 nM,448 nM,448 (18) %,5514 (29) %,5510 nM,2690 nM,–,–
"COCCNC(=O)c1cnc(N2CCN(c3ccc(F)c(S(C)(=O)=O)c3)C[C@H]2C(C)C)nc1C(F)(F)F [17-6, (R)-2-(4-(4-fluoro-3-(methylsulfonyl)phenyl)-2-isopropylpiperazin-1-yl)-N-(2-methoxyethyl)-4-(trifluoromethyl)pyrimidine-5-carboxamide]",532 nM,> 20000 nM,–,–,> 20000 nM,> 3330 nM,–,–
